Test results reported in patent EP2692332A2, “Composition for the treatment of callus, corns, moles, telangiectasias, and psoriasis” (Unigroup ApS, priority 2012, dated 2014).

Type: physicochemical
Conditions: at higher concentrations than salicylic acid

**Q.** With `O=CO` [formic acid] as the compound, how does the “miscibility with ethyl lactate” value read?
**A.** miscible
